Consider 7 compounds from PubChem BioAssay (NCI).

Some test systems named below: SNB-19 CNS; EKVX NSCLC; TK-10 renal; BT-549 breast; SK-OV-3 ovarian; SF-268 CNS; HCC-2998 colon; UO-31 renal; HOP-62 NSCLC; DU-145 prostate; MDA-MB-231 breast; HS 578T breast; MCF7 breast; SF-295 CNS; M14 melanoma; K-562 leukemia; A498 renal; SK-MEL-5 melanoma; KM12 colon.
Holding throughout (assay): NCI-60 cell line screen, 48 h

Each structure is given as a SMILES string.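 1) Cells in 96-well plates. 2) Compound, 48 h, 5 concentrations. 3) Linear interpolation between surrounding doses. 4) Unreached endpoint = highest concentration. TGI: total growth inhibition.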 Some results are limits rather than exact numbers.

Turning to `C/C(CC/C(C)=N/O)=N\O`, the TGI with SNB-19 CNS, in the test on EKVX NSCLC, in the test on TK-10 renal, in the test on BT-549 breast, in the test on SK-OV-3 ovarian and in the test with SF-268 CNS was greater than 100 µM in each case. For the same compound, the TGI with HCC-2998 colon, in the test with UO-31 renal, in the test on HOP-62 NSCLC, in the test on DU-145 prostate, in the test on MDA-MB-231 breast and in the test with HS 578T breast was greater than 100 µM throughout. Also, the TGI with MCF7 breast, in the test on SF-295 CNS, in the test on M14 melanoma, in the test on K-562 leukemia, in the test on A498 renal and with SK-MEL-5 melanoma was greater than 100 µM each time. For the same compound, the TGI in the test with KM12 colon is greater than 100 µM.

As to `COc1ccc(/C=C2\CCCC(CN(C)C)C2=O)cc1` (stereo not drawn), the TGI was 18 µM with SNB-19 CNS; 24.8 µM in the test with EKVX NSCLC; 9.45 µM in the test on TK-10 renal; 3.9 µM with BT-549 breast; 23.4 µM in the test on SK-OV-3 ovarian; 11 µM in the test with SF-268 CNS. Also, the TGI in the test on HCC-2998 colon was determined as 16.6 µM; in the test with UO-31 renal it was 8.57 µM; in the test with HOP-62 NSCLC it was 35.7 µM; in the test with DU-145 prostate it was 30.2 µM; in the test with MDA-MB-231 breast it was 8.61 µM; in the test with HS 578T breast, 10.9 µM. For the same compound, the TGI was found to be 1.45 µM in the test on MCF7 breast; 36.8 µM in the test on SF-295 CNS; 4.21 µM with M14 melanoma; 6.79 µM in the test with K-562 leukemia; 30.4 µM in the test on A498 renal; 28.8 µM in the test with SK-MEL-5 melanoma. Further, the TGI in the test with KM12 colon came out at 2.75 µM.

On to `CC(C)(C)OC(=O)NCCCCC(N)C(N)=O` (stereo not drawn), for which the TGI with SNB-19 CNS, with EKVX NSCLC, with TK-10 renal, in the test on BT-549 breast, in the test with SK-OV-3 ovarian and in the test on SF-268 CNS was greater than 100 µM throughout. The TGI in the test with HCC-2998 colon, in the test on UO-31 renal, with HOP-62 NSCLC, with DU-145 prostate, in the test with MDA-MB-231 breast and with HS 578T breast was greater than 100 µM throughout. For the same compound, the TGI with MCF7 breast, in the test with SF-295 CNS, in the test on M14 melanoma, in the test with K-562 leukemia, in the test with A498 renal and in the test with SK-MEL-5 melanoma was greater than 100 µM in each case. Besides, the TGI in the test on KM12 colon is greater than 100 µM.

On to `O=C(CN1CCN(Cc2ccccc2)CC1)c1ccc2[nH]c(=O)oc2c1`, for which the TGI in the test with SNB-19 CNS, in the test on EKVX NSCLC, in the test on TK-10 renal, in the test with BT-549 breast, in the test with SK-OV-3 ovarian and with SF-268 CNS was greater than 100 µM throughout. Further, the TGI with HCC-2998 colon, in the test on UO-31 renal, in the test with HOP-62 NSCLC, in the test with DU-145 prostate, in the test with MDA-MB-231 breast and in the test with HS 578T breast was greater than 100 µM each time. The TGI in the test on MCF7 breast, in the test with SF-295 CNS, in the test with M14 melanoma, with K-562 leukemia, with A498 renal and with SK-MEL-5 melanoma was greater than 100 µM each time. The TGI with KM12 colon was greater than 100 µM.

Consider `Brc1ccc2[nH]cc(-c3csc(-c4ccccn4)n3)c2c1`, for which the TGI in the test with SNB-19 CNS was greater than 100 µM; in the test with EKVX NSCLC, 48.2 µM; in the test with TK-10 renal, greater than 100 µM; with BT-549 breast, greater than 100 µM; in the test on SK-OV-3 ovarian it was greater than 100 µM; in the test on SF-268 CNS, greater than 59.7 µM. Further, the TGI in the test with HCC-2998 colon was 31 µM; with UO-31 renal, greater than 100 µM; with HOP-62 NSCLC, greater than 45.5 µM; in the test on DU-145 prostate, greater than 86.5 µM; in the test with MDA-MB-231 breast, greater than 75.4 µM; with HS 578T breast, greater than 100 µM. Moreover, the TGI with MCF7 breast is greater than 100 µM; with SF-295 CNS, greater than 26.4 µM; in the test with M14 melanoma, greater than 100 µM; in the test on K-562 leukemia, greater than 100 µM; in the test with A498 renal, 12.4 µM; in the test with SK-MEL-5 melanoma it was 55.9 µM. In addition, the TGI with KM12 colon is greater than 100 µM.

Consider `Nc1cc2c3c(c1)Oc1cc(N)cc4c1C3c1c(cc(N)cc1O4)O2`, for which the TGI in the test with SNB-19 CNS is greater than 100 µM; with EKVX NSCLC, greater than 47.7 µM; in the test with TK-10 renal, greater than 100 µM; in the test on BT-549 breast it was 51.3 µM; in the test on SK-OV-3 ovarian it was greater than 100 µM; in the test on SF-268 CNS, 25 µM. Also, the TGI was greater than 100 µM with HCC-2998 colon; greater than 100 µM with UO-31 renal; greater than 88.1 µM in the test on HOP-62 NSCLC; 46.7 µM in the test with DU-145 prostate; 53.8 µM in the test with MDA-MB-231 breast; greater than 100 µM with HS 578T breast. For the same compound, the TGI with MCF7 breast was greater than 60 µM; in the test with SF-295 CNS, greater than 96.6 µM; in the test on M14 melanoma, greater than 100 µM; with K-562 leukemia, greater than 100 µM; in the test on A498 renal, greater than 100 µM; with SK-MEL-5 melanoma, 27.3 µM. For the same compound, in the test with KM12 colon, the TGI was greater than 84.2 µM.

For the compound `COC(=O)CCc1cc(OC)c(O)c(C(Cc2ccc(OC)c(OC)c2)C(=O)OC)c1` (stereo not drawn), the TGI in the test with SNB-19 CNS, in the test with EKVX NSCLC, in the test on TK-10 renal, with BT-549 breast, in the test with SK-OV-3 ovarian and in the test with SF-268 CNS was greater than 100 µM throughout. Also, the TGI in the test on HCC-2998 colon, with UO-31 renal, in the test on HOP-62 NSCLC, with DU-145 prostate, in the test with MDA-MB-231 breast and with HS 578T breast was greater than 100 µM each time. The TGI in the test with MCF7 breast, in the test with SF-295 CNS, with M14 melanoma, with K-562 leukemia, in the test with A498 renal and in the test on SK-MEL-5 melanoma was greater than 100 µM throughout. In addition, the TGI with KM12 colon was greater than 100 µM.
